Measured values: patent US8399510B2, “Method of activating NK cells” (University of South Florida, priority 2007, dated 2013)

What was measured:
SHIP−/− LAK cells = experiment: 4 hour 51Cr release cytolysis assay with SHIP−/− LAK cells; type: cell-based
Description: (§1) NK cells were magnetically enriched from whole splenocytes using the Miltenyi mouse NK cell enrichment kit and an Automac (Miltenyi) per the manufacturer's instructions. Magnetically enriched cells were plated at 2×10^6 cells/mL in the presence of 2000 units/mL human rIL-2 (Proleukin). Non-adherent cells were removed on day 2 and media replaced as necessary. On day 7 a standard 4 hour chromium release assay was performed. Briefly, target cells were loaded with 100 μCi of 51Cr per 1×10^6 cells for 60 minutes at 37° C. The target and lymphokine activate killer (LAK) 3 cells were then incubated together at 37° C. for 4 hours in the presence of inhibitors or media alone. Supernatants were collected and measured for radioactivity on a gamma counter (Perkin Elmer Wizard1470).
(§2) All experiments using sodium orthovanadate (NaOV) were performed with 100 μM activated NaOV. NaOV was activated by adjusting the pH of a 200 mM stock to pH 10.0 by the addition NaOH or HCl followed by boiling until the solution becomes colorless and then cooling to room temperature. This process is then repeated until the pH of the NaOV stabilizes at 10.0 (44). NaOV was added to the wells of the killing assay with the LAK cells 15 to 30 min prior to adding target cells at room temperature. NSC119910 was obtained from the Drug Synthesis and Chemistry Branch, Developmental Therapeutics Program, Division of Cancer Treatment and Diagnosis, NCI. The structure of NSC119910 was confirmed by proton NMR using a Varian Mercury-Plus, Oxford AS400 spectrometer. The 1H NMR spectrum was recorded at 400 MHz using DMSO-d6 as solvent and tetramethylsilane (TMS) as an internal standard. Chemical shift values are reported in parts per million (δ). […] 25 times this IC50 was established as the effective dose for NK cell based assays. NSC119910 was added immediately before the addition of target cells on ice. Both compounds were tested at their working concentration for the ability to kill and/or lyse the target cells without LAK cells being present.
Given the inappropriate degree of SHP1 recruitment to 2B4 in SHIP^−/− NK cells, the possibility of using chemical inhibitors to block its tyrosine phosphatase activity was explored to determine if this could restore killing of complex targets by SHIP-deficient NK cells. Standard four-hour 51Cr release assays were performed with SHIP^−/− (−/−) or WT (+/+) LAK cells, with a ratio of 30:1 and 3000 target cells for all conditions. NaOV (100 μM) was used first, a broadly acting tyrosine phosphatase inhibitor to counteract the effects of the SHP1 over-recruitment to 2B4, with a medium-only negative control. […] In fact, SHIP-deficient NK cytolysis of RMA parental targets exceeds that of WT LAK cells. This supernormal killing has been consistently observed against RMA targets in three separate studies with NaOV-treated SHIP^−/− LAK cells. This finding indicates phosphatase inhibition can restore the ability of SHIP^−/− NK cells to kill complex targets via NKG2D, while also expanding the capacity of SHIP-deficient NK cells to kill tumor cells in the absence of ligands for NKG2D.
Next, the ability of NSC119910 to restore killing in the SHIP^−/− NK cell was tested. The effective in vitro dose at which NSC119910 was able to restore SHIP^−/− cytotoxicity was determined in a dose titration experiment. Through this, 67.32 μM was identified as the effective dose (data not shown). This concentration of 67.32 μM of NSC119910 was used for all subsequent standard 4-hour 51Cr release assays, performed with SHIP^−/− (^−/−) or WT (^+/+) LAK cells and using a ratio of 30:1 and 3000 target cells in the presence of 67.32 μM NCI119910 or media alone (−). […] The experiments were repeated, using M157+ BaF3 transfectants were used as targets (FIG. 5D). SHIP^−/− (^−−) or WT (^++) cells were incubated with 67.32 μM NSC119910 (119910) or media alone (CNT) for 4 hours. The cells were then stained for NK1.1, TCR-β and NKG2D and analyzed for NKG2D expression. […]

WT LAK cells = experiment: 4 hour 51Cr release cytolysis assay with WT LAK cells; type: cell-based, mouse
Description: as §1, §2
Given the inappropriate degree of SHP1 recruitment to 2B4 in SHIP^−/− NK cells, the possibility of using chemical inhibitors to block its tyrosine phosphatase activity was explored to determine if this could restore killing of complex targets by SHIP-deficient NK cells. Standard four-hour 51Cr release assays were performed with SHIP^−/− (−/−) or WT (+/+) LAK cells, with a ratio of 30:1 and 3000 target cells for all conditions. […]
Next, the ability of NSC119910 to restore killing in the SHIP^−/− NK cell was tested. The effective in vitro dose at which NSC119910 was able to restore SHIP^−/− cytotoxicity was determined in a dose titration experiment. […] The cells were then stained for NK1.1, TCR-β and NKG2D and analyzed for NKG2D expression. […]

SHP2 = target: T1, SHP2 (Homo sapiens, UniProt Q06124); experiment: PTP inhibition assay (DiFMUP substrate), SHP2; type: biochemical; settings: in vitro phosphatase activity, versus PTP1b
T1 sequence (Q06124 1-593): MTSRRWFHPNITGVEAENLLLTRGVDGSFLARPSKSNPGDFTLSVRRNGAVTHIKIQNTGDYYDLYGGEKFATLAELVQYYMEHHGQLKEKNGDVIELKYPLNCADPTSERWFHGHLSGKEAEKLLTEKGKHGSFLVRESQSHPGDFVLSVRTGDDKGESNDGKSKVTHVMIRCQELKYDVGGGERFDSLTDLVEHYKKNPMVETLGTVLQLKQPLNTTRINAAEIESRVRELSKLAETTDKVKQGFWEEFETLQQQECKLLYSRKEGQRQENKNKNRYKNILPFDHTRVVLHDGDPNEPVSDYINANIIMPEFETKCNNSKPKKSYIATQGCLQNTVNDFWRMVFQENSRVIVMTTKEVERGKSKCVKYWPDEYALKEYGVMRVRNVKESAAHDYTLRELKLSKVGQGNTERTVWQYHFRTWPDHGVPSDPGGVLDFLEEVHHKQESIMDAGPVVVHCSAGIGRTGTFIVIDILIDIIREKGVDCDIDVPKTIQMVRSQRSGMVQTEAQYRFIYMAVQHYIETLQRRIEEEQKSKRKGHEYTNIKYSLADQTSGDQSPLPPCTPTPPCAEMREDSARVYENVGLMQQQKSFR
Description: (§3) PTP activity was measured using the fluorogenic 6,8-difluoro-4-methylumbelliferyl phosphate (DiFMUP; Invitrogen, Carlsbad, Calif.) as the substrate. Each reaction contained 25 mM HEPES, 50 mM NaCl, 0.05% Triton, 1 mM dithiothreitol, 20 μM DiFMUP, 10 nM Microcystin LR, 20 nM GST-PTP, and 10 μl of test compound or dimethyl sulfoxide (solvent) in a total reaction volume of 100 μl in black 96-well plates. Reaction was initiated by addition of DiFMUP, and the incubation time was 30 min at room temperature. DiFMUP fluorescence signal was measured at an excitation of 355 nm and an emission of 460 nm with a plate reader (Victor2 1420; PerkinElmer Wallac, Gaithersburg, Md.). IC50 was defined as the concentration of an inhibitor that caused a 50% decrease in the PTP activity. For IC50 determination, eight concentrations of NSC119910 at one-third dilution (˜0.5 log) were tested. The ranges of NSC119910 concentrations used in each PTP assay were determined from preliminary trials. Each experiment was performed either in triplicate or duplicate, and IC50 data were derived from at least two independent experiments. The curve-fitting program Prism 4 (GraphPad Software, San Diego, Calif.) was used to calculate IC50 values.

SHP1 = SHP1 (Homo sapiens, UniProt P29350); experiment: PTP inhibition assay (DiFMUP substrate), SHP1; type: biochemical
Sequence of SHP1 (P29350 whole entry): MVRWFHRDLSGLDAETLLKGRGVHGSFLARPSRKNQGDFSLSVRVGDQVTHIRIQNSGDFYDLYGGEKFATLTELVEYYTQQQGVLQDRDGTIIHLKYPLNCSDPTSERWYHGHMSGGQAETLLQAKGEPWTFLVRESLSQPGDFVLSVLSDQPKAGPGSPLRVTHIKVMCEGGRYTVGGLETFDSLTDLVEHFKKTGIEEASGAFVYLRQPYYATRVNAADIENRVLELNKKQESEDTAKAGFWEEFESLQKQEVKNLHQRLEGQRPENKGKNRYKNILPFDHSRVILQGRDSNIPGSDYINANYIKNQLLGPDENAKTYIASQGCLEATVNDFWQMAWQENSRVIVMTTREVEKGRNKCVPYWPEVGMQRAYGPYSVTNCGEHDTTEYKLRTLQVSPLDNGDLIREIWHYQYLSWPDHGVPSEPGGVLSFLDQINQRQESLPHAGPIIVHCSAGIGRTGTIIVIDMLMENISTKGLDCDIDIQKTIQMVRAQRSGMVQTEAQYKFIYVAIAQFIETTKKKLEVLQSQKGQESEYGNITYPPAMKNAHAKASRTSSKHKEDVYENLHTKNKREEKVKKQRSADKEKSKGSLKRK
Description: as §3

NKG2D = NKG2D expression on LAK cells (staining for NK1.1, TCR-β, NKG2D); type: cell-based, mouse; settings: 67.32 μM NSC119910, 4 hours; SHIP−/− or WT cells
Description: Next, the ability of NSC119910 to restore killing in the SHIP^−/− NK cell was tested. The effective in vitro dose at which NSC119910 was able to restore SHIP^−/− cytotoxicity was determined in a dose titration experiment. Through this, 67.32 μM was identified as the effective dose (data not shown). This concentration of 67.32 μM of NSC119910 was used for all subsequent standard 4-hour 51Cr release assays, performed with SHIP^−/− (^−/−) or WT (^+/+) LAK cells and using a ratio of 30:1 and 3000 target cells in the presence of 67.32 μM NCI119910 or media alone (−). […] The experiments were repeated, using M157+ BaF3 transfectants were used as targets (FIG. 5D). SHIP^−/− (^−−) or WT (^++) cells were incubated with 67.32 μM NSC119910 (119910) or media alone (CNT) for 4 hours. The cells were then stained for NK1.1, TCR-β and NKG2D and analyzed for NKG2D expression. The addition of NSC119910 to LAK cells had no effect on the expression levels of NKG2D (FIG. 5E). The experiments were also performed with m157^+ BaF3 targets. […] Although the increase is not as dramatic as observed with NKG2D mediated cytolysis, this increase has been observed consistently in multiple cytolysis assays with the m157^+ BaF3 targets. […]

[1] = 100 μM NaOV, ratio 30:1, 3000 target cells
[2] = 67.32 μM NSC119910, ratio 30:1, 3000 target cells

SMILES | killing of m157+ BaF3 targets by SHIP−/− NK cells (SHIP−/− LAK cells; 100 μM NaOV) | killing of parental BaF3 targets by SHIP−/− NK cells (SHIP−/− LAK cells; 100 μM NaOV) | killing of RMA parental targets by SHIP−/− LAK cells (SHIP−/− LAK cells; [1]) | killing of Rae1+ RMA targets by SHIP−/− LAK cells (SHIP−/− LAK cells; [1]) | killing of RMA or RMA-Rae1+ targets by WT LAK cells (WT LAK cells; [1]) | selectivity to SHP2 over PTP1b (SHP2) | selectivity to SHP1 over PTP1b (SHP1; in vitro phosphatase activity, versus PTP1b) | IC50 (SHP1; purified SHP1, read-out: cell free, in vitro IC50 using purified SHP1) [nM] | expression levels of NKG2D on LAK cells (NKG2D) | killing of m157+ BaF3 targets by SHIP−/− NK cells (SHIP−/− LAK cells; 67.32 μM NSC119910) | killing of Rae1+ RMA targets by SHIP−/− NK cells (SHIP−/− LAK cells; [2]) | killing of parental RMA targets by SHIP−/− NK cells (SHIP−/− LAK cells; [2]) | effective in vitro dose restoring SHIP−/− cytotoxicity (SHIP−/− LAK cells; dose titration experiment (data not shown)) [µM] | cytolytic activity of WT NK cells against Rae1+ targets (WT LAK cells; [2]) | killing of m157+ cells by WT LAK cells (WT LAK cells; NSC119910, compared with the increase seen with NaOV) | killing of RMA cells by WT NK cells (WT LAK cells; in the presence of NSC119910)
[Na+].[Na+].[Na+].[O]=[V]([O-])([O-])[O-] [NaOV, Sodium orthovanadate, reference compound] | able to increase the capacity | able to increase the capacity | increased the capacity | restore cellular ability to mediate efficient killing | increased killing by WT LAK cells was not seen |  |  |  |  |  |  |  |  |  |  | 
O=C(O)C1CCCCC1c1c2ccc(=O)c(O)c-2oc2c(O)c(O)ccc12 (stereo not shown) [NSC119910] |  |  |  |  |  | approximately 100 fold | approximately 10 fold | 2700 | no effect | increased | significantly restored killing | significantly restored killing | 67.32 | no effect | the same increase of killing of m157^+ cells by WT LAK cells was not seen | increase
